These results are taken from PubChem BioAssay AID330 (DTP/NCI, 2004).

Several values for one entry are separate records, joined by “and”; a condition that tells them apart may be missing. Equal values may be shown once. Inconclusive results and toxic doses are left out.

The test concerns P388 leukemia ip, CD2F1 mice, survival T/C. The experiment in a line: NCI In Vivo Anticancer Drug Screen. Data for tumor model P388 Leukemia (intraperitoneal) in CD2F1 (CDF1) mice. Particulars: endpoint: median survival time, higher = longer survival. Put shortly:
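Mice carrying the transplanted tumor received test compound or vehicle. Survival was recorded in each group, and the value is the treated-group measurement divided by that of the vehicle-treated control group.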

Setting [1] is: dose: 12.5 mg/kg/injection, schedule: Q01DX009 (ip), vehicle: saline with Tween-80.
Where [2] appears, read: dose: 25.0 mg/kg/injection, schedule: Q01DX009 (ip), vehicle: saline with Tween-80.
Where [3] appears, read: dose: 50.0 mg/kg/injection, schedule: Q01DX009 (ip), vehicle: saline with Tween-80.
[4] abbreviates: dose: 100.0 mg/kg/injection, schedule: Q04DX003 (ip), vehicle: saline with Tween-80.
[5] abbreviates: dose: 200.0 mg/kg/injection, schedule: Q04DX003 (ip), vehicle: saline with Tween-80.
[6] abbreviates: dose: 400.0 mg/kg/injection, schedule: Q04DX003 (ip), vehicle: saline with Tween-80.
The mark [7] stands for this setting: dose: 100.0 mg/kg/injection, schedule: Q01DX009 (ip), vehicle: saline with Tween-80.
Setting [8] is: dose: 200.0 mg/kg/injection, schedule: Q01DX009 (ip), vehicle: saline with Tween-80.
The mark [9] stands for this setting: dose: 60.0 mg/kg/injection, schedule: Q01DX005 (ip), vehicle: saline with Tween-80.
Setting [10] is: dose: 120.0 mg/kg/injection, schedule: Q01DX005 (ip), vehicle: saline with Tween-80.
Where [11] appears, read: dose: 240.0 mg/kg/injection, schedule: Q01DX005 (ip), vehicle: saline with Tween-80.
[12] abbreviates: dose: 50.0 mg/kg/injection, schedule: Q01DX005 (ip), vehicle: saline with Tween-80.
The mark [13] stands for this setting: dose: 100.0 mg/kg/injection, schedule: Q01DX005 (ip), vehicle: saline with Tween-80.
[14] abbreviates: dose: 200.0 mg/kg/injection, schedule: Q01DX005 (ip), vehicle: saline with Tween-80.

`Cc1c(-c2ccc(C(=N)N)cc2)oc(-c2ccc(C(=N)N)cc2)c1C`: the T/C reads like this: (dose: 3.13 mg/kg/injection, schedule: Q01DX009 (ip), vehicle: saline with Tween-80) 104 % of control; (dose: 6.25 mg/kg/injection, schedule: Q01DX009 (ip), vehicle: saline with Tween-80) 112 % of control.
Turning to `NNc1n[nH]c(=O)c2cnccc12`, the T/C was 96 % of control (dose: 25.0 mg/kg/injection, schedule: Q04DX002 (ip), vehicle: saline with Tween-80); 93 % of control (dose: 50.0 mg/kg/injection, schedule: Q04DX002 (ip), vehicle: saline with Tween-80); 100 % of control and 95 % of control (dose: 100.0 mg/kg/injection, schedule: Q04DX002 (ip), vehicle: saline with Tween-80).
`C=CCN(CC=C)P(=O)(N1CC1C)N1CC1C` (stereo not given): the T/C is 166 % of control (dose: 1.65 mg/kg/injection, schedule: Q01DX009 (ip), vehicle: water); 157 % of control (dose: 2.5 mg/kg/injection, schedule: Q01DX009 (ip), vehicle: water); 118 % of control (dose: 3.75 mg/kg/injection, schedule: Q01DX009 (ip), vehicle: water); 97 % of control (dose: 5.0 mg/kg/injection, schedule: Q01DX009 (ip), vehicle: saline).
Turning to `S=C(N=Nc1ccccc1)NNc1ccccc1`, the T/C is 100 % of control under setting [1]; 95 % of control under setting [2]; 90 % of control under setting [3]; 90 % of control under setting [4]; 86 % of control under setting [5]; 100 % of control under setting [6].
As for `CC1CCC(C(C)C)C2(C1)OC(CCl)CS2` (stereo not given), the T/C was 106 % of control under setting [1]; 114 % of control under setting [2]; 114 % of control and 124 % of control under setting [3].
In the case of `COc1cccc2c1C(=O)c1c(O)c3c(c(O)c1C2=O)C[C@@](O)(/C(C)=N\NC(N)=O)C[C@@H]3OC1CC(N)C(O)C(C)O1` (stereo not given in full), under “dose: 1.56 mg/kg/injection, schedule: Q01DX009 (ip), vehicle: saline”, the T/C was 95 % of control.
`CCCCCCCCCCCCCOCC(=O)OC`: the T/C reads like this: under setting [3], 100 % of control; under setting [7], 104 % of control; under setting [8], 105 % of control.
`C[CH2][Sn]([CH2]C)([n]1c2ccccc2c2c(C)c3cnccc3c(C)c21)[n]1c2ccccc2c2c(C)c3cnccc3c(C)c21`: the T/C (dose: 1.56 mg/kg/injection, schedule: Q01DX005 (ip), vehicle: Klucel (hydroxypropylcellulose) (HPC)) is 118 % of control and the T/C (dose: 6.25 mg/kg/injection, schedule: Q01DX005 (ip), vehicle: Klucel (hydroxypropylcellulose) (HPC)) is 155 % of control.
As to `Oc1c(Cl)cc(Cl)cc1/C=N/c1nc(-c2ccc(Cl)cc2)cs1`, the T/C was 88 % of control under setting [7] and 104 % of control under setting [8].
In the case of `C(=NCCN=CC1CCCC[N-]1)C1CCCC[N-]1.[Cu+2].[O-][Cl+3]([O-])([O-])O` (stereo not given), the T/C reads like this: under setting [1], 115 % of control; under setting [2], 98 % of control.
In the case of `Cc1cc2cc3c(=O)n(C)c(=O)nc-3n(CC(O)C(O)C(O)CO)c2cc1C` (stereo not given), the T/C was 98 % of control (dose: 15.0 mg/kg/injection, schedule: Q01DX009 (ip), vehicle: saline with Tween-80); 98 % of control (dose: 30.0 mg/kg/injection, schedule: Q01DX009 (ip), vehicle: saline with Tween-80); 113 % of control (dose: 60.0 mg/kg/injection, schedule: Q01DX009 (ip), vehicle: saline with Tween-80).
Take `O=C1C=CC(Nc2ccc(Cl)c(Cl)c2)C1Nc1ccc(Cl)c(Cl)c1` (stereo not given): the T/C runs as follows: under setting [9], 100 % of control; under setting [10], 93 % of control; under setting [11], 93 % of control.
Consider `CN(C)c1ccc(CCc2nc(N)nc3nccnc23)cc1`, for which the T/C by setting is: (dose: 50.0 mg/kg/injection, schedule: Q04DX003 (ip), vehicle: Klucel (hydroxypropylcellulose) (HPC)) 96 % of control; (dose: 100.0 mg/kg/injection, schedule: Q04DX003 (ip), vehicle: Klucel (hydroxypropylcellulose) (HPC)) 90 % of control; (dose: 200.0 mg/kg/injection, schedule: Q04DX003 (ip), vehicle: Klucel (hydroxypropylcellulose) (HPC)) 96 % of control; (dose: 400.0 mg/kg/injection, schedule: Q04DX003 (ip), vehicle: Klucel (hydroxypropylcellulose) (HPC)) 99 % of control.
Turning to `N/C=N/OC(c1ccccc1)c1ccccc1`, the T/C was 99 % of control (dose: 50.0 mg/kg/injection, schedule: Q01DX005 (ip), vehicle: Klucel + Tween-80); 102 % of control (dose: 100.0 mg/kg/injection, schedule: Q01DX005 (ip), vehicle: Klucel + Tween-80); 98 % of control (dose: 200.0 mg/kg/injection, schedule: Q01DX005 (ip), vehicle: Klucel + Tween-80).
On to `Cc1c2ccncc2cc2c1[nH]c1ccccc12`, for which the T/C reads like this: (dose: 50.0 mg/kg/injection, schedule: Q04DX003 (ip), vehicle: saline with Tween-80) 160 % of control; (dose: 66.0 mg/kg/injection, schedule: Q04DX003 (ip), vehicle: saline with Tween-80) 209 % of control.
For the compound `CC1=C(C)CN2CC(C#N)=C(N)C2C1` (stereo not given), the T/C is 107 % of control under setting [12], 96 % of control under setting [13] and 96 % of control under setting [14].
On to `CCCN(CCNc1cc(OC)cc2cccnc12)C(C)C`, for which the T/C (dose: 12.5 mg/kg/injection, schedule: Q01DX005 (ip), vehicle: saline) was 107 % of control; the T/C (dose: 25.0 mg/kg/injection, schedule: Q01DX005 (ip), vehicle: saline) was 107 % of control; the T/C (dose: 50.0 mg/kg/injection, schedule: Q01DX005 (ip), vehicle: saline) was 106 % of control and 88 % of control.
Take `CC(=O)Nc1ccc(C(O)C2=CC(=O)c3ccccc3C2=O)cc1` (stereo not given): the T/C runs as follows: (dose: 6.25 mg/kg/injection, schedule: Q01DX009 (ip), vehicle: saline) 97 % of control; (dose: 12.5 mg/kg/injection, schedule: Q01DX009 (ip), vehicle: saline) 97 % of control; (dose: 25.0 mg/kg/injection, schedule: Q01DX009 (ip), vehicle: saline) 86 % of control; (dose: 25.0 mg/kg/injection, schedule: Q01DX009 (ip), vehicle: suspension in saline) 103 % of control; (dose: 50.0 mg/kg/injection, schedule: Q01DX009 (ip), vehicle: suspension in saline) 114 % of control; (dose: 100.0 mg/kg/injection, schedule: Q01DX009 (ip), vehicle: suspension in saline) 113 % of control.
Turning to `O=C1C=CC(=Nc2cc(Cl)c(O)c(Cl)c2)C=C1`, the T/C under setting [12] was 96 % of control, the T/C under setting [13] was 92 % of control and the T/C under setting [14] is 88 % of control.
Turning to `Cc1ccc(S(=O)(=O)N/N=C2/C(=O)NC(=O)C(=O)C2c2nc3ccccc3s2)cc1` (stereo not given), the T/C under setting [9] was 98 % of control, the T/C under setting [10] is 92 % of control and the T/C under setting [11] was 100 % of control.
Turning to `Cc1cc(=O)[nH]c(N/N=C/c2ccc(O)cc2)n1`, the T/C by setting is: (dose: 18.75 mg/kg/injection, schedule: Q04DX003 (ip), vehicle: saline sonified) 90 % of control; (dose: 37.5 mg/kg/injection, schedule: Q04DX003 (ip), vehicle: saline sonified) 86 % of control; (dose: 75.0 mg/kg/injection, schedule: Q04DX003 (ip), vehicle: saline sonified) 104 % of control.
For `COC(=O)CCC(C)(c1ccc(O)cc1)c1ccc(O)cc1`, the T/C was 104 % of control under setting [4], 90 % of control under setting [5] and 90 % of control under setting [6].
Regarding `CC1(C)N=C(c2ccccc2)C(c2ccccc2)=NC1(C)C`, the T/C (dose: 100.0 mg/kg/injection, schedule: Q04DX002 (ip), vehicle: saline) was 101 % of control; the T/C (dose: 200.0 mg/kg/injection, schedule: Q04DX002 (ip), vehicle: saline) was 98 % of control; the T/C (dose: 400.0 mg/kg/injection, schedule: Q04DX002 (ip), vehicle: saline) is 104 % of control.
Turning to `CCN(CC)CCOCCOC1(C)CCC(C(C)C)CC1` (stereo not given), the T/C was 108 % of control (dose: 50.0 mg/kg/injection, schedule: Q01DX005 (ip), vehicle: suspension in saline) and 106 % of control (dose: 100.0 mg/kg/injection, schedule: Q01DX005 (ip), vehicle: suspension in saline).
With `N#CCCCCCCCCCCCCCC1C=CCC1` (stereo not given), the T/C is 106 % of control (dose: 100.0 mg/kg/injection, schedule: Q01DX001 (ip), vehicle: saline); 99 % of control (dose: 200.0 mg/kg/injection, schedule: Q01DX001 (ip), vehicle: saline); 101 % of control (dose: 400.0 mg/kg/injection, schedule: Q01DX001 (ip), vehicle: saline).
